Legend:
Calu-6 cells = assay: Payload cellular killing in Calu-6 cancer line; assay type: cell-based; conditions: 6 days, Cell Titer-Glo
Method: Calu-6 (ATCC, HTB-56). […] The base medium for Calu-6 is Eagle's Minimum Essential Medium (ATCC, 30-2003). […] The cell line was grown in a humidified 5% CO2 atmosphere at 37 °C, and was regularly tested for the presence of mycoplasma with MycoAlert™ PLUS Mycoplasma Detection Kit (Lonza, LT07-710).
(§1) Payload cellular killing was assessed in A375 and Calu-6 cancer lines. Cells were seeded (A375 (1E3/well) or Calu-6 (2E3/well)) into a 96-well plate (Greiner: 655090), at 100 μl/well and incubated at 37 °C, 5% CO2, overnight. Fresh growth medium was added containing varying concentrations of compounds, 50 μl/well, and incubated at 37 °C, 5% CO2, for 6 days. The cell viability was detected by Cell Titer-Glo (Promega, G7573). 70 μL of CellTiter-Glo® Reagent was added to each well. The plates were allowed to incubate at room temperature for 10 minutes to stabilize the luminescent signal. The plates were analyzed with a microplate reader.

A375 cells = assay: Payload cellular killing in A375 cancer line; assay type: cell-based, human; conditions: Cell Titer-Glo
Method: A375 (ATCC, CRL-1619). […] The base medium for A375 is DMEM, high glucose, GlutaMAX™ Supplement (Gibco, 10566024). […] The cell line was grown in a humidified 5% CO2 atmosphere at 37 °C, and was regularly tested for the presence of mycoplasma with MycoAlert™ PLUS Mycoplasma Detection Kit (Lonza, LT07-710).
as §1

| SMILES | Emax (%) (Calu-6 cells) | EC50 (Calu-6 cells; Homo sapiens) [nM] | Emax (%) (A375 cells; 6 days) | EC50 (Calu-6 cells) [nM] | EC50 (A375 cells; 6 days) [nM] | Emax (Calu-6 cells; Homo sapiens) [%] | EC50 (A375 cells; Homo sapiens, A-375, 6 days) [nM] | Emax (A375 cells; Homo sapiens, A-375, 6 days) [%] |
| --- | --- | --- | --- | --- | --- | --- | --- | --- |
| CC[C@@]1(O)C(=O)OCc2c1cc1n(c2=O)Cc2c-1nc1cc(F)c(C)c3c1c2C(CCCO)CC3 (stereo partly drawn) [P3, (9S)-9-ethyl-5-fluoro-9-hydroxy-1-(3-hydroxypropyl)-4-methyl-1,2,3,9,12,15-hexahydro-10H,13H-benzo[de]pyrano[3′,4′:6,7]indolizino[1,2-b]quinoline-10,13-dione] | 99.2 | 0.2 | 100.0 | – | – | – | – | – |
| CC[C@@]1(O)C(=O)OCc2c1cc1n(c2=O)Cc2c-1nc1cc(F)c(C)c3c1c2C(CCO)CC3 (stereo partly drawn) [P5, (9S)-9-ethyl-5-fluoro-9-hydroxy-1-(2-hydroxyethyl)-4-methyl-1,2,3,9,12,15-hexahydro-10H,13H-benzo[de]pyrano[3′,4′:6,7]indolizino[1,2-b]quinoline-10,13-dione] | 98.1 | – | 100.0 | – | – | – | – | – |
| CC[C@@]1(O)C(=O)OCc2c1cc1n(c2=O)Cc2c-1nc1cc3c(c4c1c2[C@@H](NC(=O)C(C)(F)CO)CC4)OCO3 (stereo partly drawn) [P9, N-((1S,10S)-10-ethyl-10-hydroxy-11,14-dioxo-2,3,10,11,14,16-hexahydro-1H,13H-benzo[de][1,3]dioxolo[4,5-g]pyrano[3′,4′:67]indolizino[1,2-b]quinolin-1-yl)-2-fluoro-3-hydroxy-2-methylpropanamide] | 98.3 | – | 100.0 | 0.9 | 2.1 | – | – | – |
| CC[C@@]1(O)C(=O)OCc2c1cc1n(c2=O)Cc2c-1nc1cc3c(c4c1c2[C@@H](NC(=O)OCCO)CC4)OCO3 [P10, 2-hydroxyethyl ((1S,10S)-10-ethyl-10-hydroxy-11,14-dioxo-2,3,10,11,14,16-hexahydro-1H,13H-benzo[de][1,3]dioxolo[4,5-g]pyrano[3′,4′:6,7]indolizino[1,2-b]quinolin-1-yl)carbamate] | – | 0.7 | – | – | – | 97.4 | 2.2 | 100 |
| CC[C@@]1(O)C(=O)OCc2c1cc1n(c2=O)Cc2c-1nc1cc(F)c(C)c3c1c2C(CN(C)CCO)CC3 (stereo partly drawn) [P11, (9S)-9-ethyl-5-fluoro-9-hydroxy-1-(((2-hydroxyethyl)(methyl)amino)methyl)-4-methyl-1,2,3,9,12,15-hexahydro-10H,13H-benzo[de]pyrano[3′,4′:6,7]indolizino[1,2-b]quinoline-10,13-dione] | – | – | – | – | – | 98 | 0.8 | – |
